Patent US20130096067A1, “DROSOPHILA TUMOR STEM CELL MODEL AND USES THEREOF” (priority 2011, published 2013)
Like-named read-outs stand apart in the source and are kept apart here. Square brackets hold non-standard residues; d marks the D form. Peptide text beside a SMILES is read from it. * marks the point of attachment. Phe(ol) = N[C@H](CO)Cc1ccccc1; Cbz = O=C(OCc1ccccc1)*; Aib = CC(C)(N)C(=O)O

Tested on: Raf-1^gof intestinal tumors
Conditions: for Log2 (fold) of luciferase activity relative to DMSO controls / Fold (luciferase activity relative to DMSO controls): ICCB compounds fed in vials to flies with one-day old Raf-1^gof tumors; for Fold: Table 3 summary of hits, Screen ICCB, luciferase relative to DMSO, fed three consecutive days in vials
[1] = screen of 480 ICCB compounds in vials, compounds fed to flies with one-day old Raf-1^gof tumors, assessed three days later, esg-Gal4 luciferase
[2] = screen of 480 ICCB compounds in vials, compounds fed to flies with one-day old Raf-1^gof tumors, assessed three days later, esg-Gal4 luciferase, averaged from multiple wells
[3] = assessed three days later, averaged from multiple wells
Throughout, for Fold (luciferase activity relative to DMSO controls): test concentration or dose not given here.
Throughout, for Fold (luciferase activity, fold difference relative to DMSO controls): test concentration or dose not given here.
Throughout, for Log2 (fold) (luciferase activity, log2 of the fold difference relative to DMSO controls): test concentration or dose not given here.
Throughout, for Log2 (fold) of luciferase activity relative to DMSO controls: test concentration or dose not given here.

SMILES	Log2 (fold) (luciferase activity, log2 of the fold difference relative to DMSO controls) [1]	Fold (luciferase activity, fold difference relative to DMSO controls) [2]	Log2 (fold) of luciferase activity relative to DMSO controls (assessed three days later)	Fold (luciferase activity relative to DMSO controls) [3]	other results
CC(C)=CC[C@@H](O)C1=CC(=O)c2c(O)ccc(O)c2C1=O [Shikonin]	−0.795	0.576			
O=C1CCc2c(ccc3ccccc23)O1 [Splitomycin]	−0.241	0.846			
CCCCCc1cc(O)c2c(c1)OC(C)(C)C1CCC(C(=O)O)=CC21 (stereo not shown) [TETRAHYDROCANNABINOL-7-OIC ACID]	−0.240	0.847			
COc1ccc2cc1Oc1ccc(cc1)C[C@H]1c3cc(c(OC)cc3CCN1C)Oc1c(OC)c(OC)cc3c1[C@H](C2)N(C)CC3 [TETRANDRINE]	−0.318	0.802			
CCN(CC)CCCCCCCCOC(=O)c1cc(OC)c(OC)c(OC)c1 [TMB-8]	−0.325	0.798			
Cc1ccc(S(=O)(=O)NC(=O)NN2CCCCCC2)cc1 [TOLAZAMIDE]	−0.365	0.776			
CCCCNC(=O)NS(=O)(=O)c1ccc(C)cc1 [TOLBUTAMIDE]	−0.494	0.710			
c1ccc(CN(CCN(Cc2ccccn2)Cc2ccccn2)Cc2ccccn2)nc1 [TPEN]	−0.717	0.608			
FC(F)(F)c1ccccc1-n1ccnc1 [TRIM]			−0.160	0.895 fold	
C/C(=C\c1ccc(C(=O)O)cc1)c1ccc2c(c1)C(C)(C)CCC2(C)C [TTNPB]			−0.114	0.924 fold	
Cc1coc2c1C(=O)C(=O)c1c-2ccc2c1CCCC2(C)C [Tanshinone IIA]	−0.570	0.674			
Cl.NC(=S)NCCCC(N)C(=O)O [Thiocitrulline [L-Thiocitrulline HCl]]			−0.170	0.889 fold	
O=C(O)CNC(=O)C(CS)Cc1ccccc1 (stereo not shown) [Thiorphan]	−0.673	0.627			
Cc1ccc(S(=O)(=O)N[C@@H](Cc2ccccc2)C(=O)CCl)cc1 [Tosyl-Phe-CMK (TPCK)]	−0.233	0.851			
COc1cc2c(cc1OC)-c1c/c(=N\c3c(C)cc(C)cc3C)n(C)c(=O)n1CC2 [Trequinsin]	−0.279	0.824			
N#CC(C#N)=Cc1ccc(O)cc1 [Tyrphostin-8]					Fold (luciferase activity, fold difference relative to DMSO controls) (in vivo): 0.796; Log2 (fold) (luciferase activity, log2 of the fold difference relative to DMSO controls) (in vivo): −0.329
COc1ccc2c(c1)CC[C@@H]1[C@@H]2CC[C@]2(C)[C@@H](NCCCCCCN3C(=O)C=CC3=O)CC[C@@H]12 [U73122]	−0.865	0.549			
N#CC(=C(/N)Sc1ccccc1N)/C(C#N)=C(/N)Sc1ccccc1N [U-0126]			−0.023	0.984 fold	
C1CCC(N=C(NC23CC4CC(CC(C4)C2)C3)N2CCOCC2)CC1.Cl [U-37883A]	−0.572	0.673			

SMILES	Log2 (fold) (luciferase activity, log2 of the fold difference relative to DMSO controls) [1]	Fold (luciferase activity, fold difference relative to DMSO controls) [2]	Log2 (fold) of luciferase activity relative to DMSO controls (assessed three days later)	Fold (luciferase activity relative to DMSO controls) [3]	other results
CCCCC[C@H](O)/C=C/[C@@H]1[C@@H](C/C=C\CCCC(=O)O)[C@H]2CO[C@@H]1C2 [U-46619]			−0.063	0.957 fold	
C[C@]12C=CC(=O)C=C1CC[C@@H]1C2=CC[C@]2(C)[C@@H](C(=O)CN3CCN(c4cc(N5CCCC5)nc(N5CCCC5)n4)CC3)CC[C@@H]12.O=C(O)/C=C\C(=O)O [U-74389G]	−0.462	0.726			
CCCCC/C=C\C[C@@H](O)/C=C/c1cccc(C[C@@H](O)CCCCO)n1 [U-75302]			−0.041	0.972 fold	
Cc1c(C(=O)c2cccc3ccccc23)c2cccc3c2n1[C@H](CN1CCOCC1)CO3 [WIN 55,212-2]	−0.305	0.810			
Cc1cccc(Nc2cc(Cl)nc(SCC(=O)O)n2)c1C [WY-14643]			0.020	1.014 fold	
C1CCC[C@H]2CCCN3CC[C@@H](CCCCCC[C@@H]4CCCN5CC[C@@H](CC1)O[C@@H]45)O[C@@H]23 [Xestospongin C]	−0.456	0.729			
C[C@@H](N)[C@H]1CC[C@H](C(=O)Nc2ccncc2)CC1 [Y-27632]	−0.380	0.768			
COc1ccc(CCN(C)CCc2ccc(OC)c(OC)c2)cc1OC [YS035]			−0.152	0.900 fold	
O=C[C@@H]1CCCN1C(=O)[C@@H]1CCCN1C(=O)OCc1ccccc1 [Z-prolyl-prolinal] (Cbz-Pro-Pro-aldehyde)	−0.692	0.619			
CC(C)C[C@@H](/C=C/S(C)(=O)=O)NC(=O)[C@H](CC(C)C)NC(=O)[C@H](CC(C)C)NC(=O)OCc1ccccc1 [ZL3VS]	−0.513	0.701			
CC(O)(C(=O)Nc1ccc(S(=O)(=O)c2ccccc2)cc1)C(F)(F)F (stereo not shown) [ZM226600]			−0.117	0.922 fold	
Cc1ccc(NC(=O)c2cccc(N(C)C)c2)cc1NC(=O)c1ccc(O)cc1 [ZM336372]	−0.338	0.791			
CC(=O)N[C@@H](CSCC=C(C)CCC=C(C)CCC=C(C)C)C(=O)O [acetyl (N)-s-farnesyl-1-cysteine]			−0.036	0.975 fold	
CC(=O)NC(C)(C)C(=O)N1CCC[C@H]1C(=O)NC(C)(C)C(=O)N[C@@H](C)C(=O)NC(C)(C)C(=O)N[C@@H](C)C(=O)N[C@@H](CCC(N)=O)C(=O)NC(C)(C)C(=O)N[C@H](C(=O)NC(C)(C)C(=O)NCC(=O)N[C@@H](CC(C)C)C(=O)NC(C)(C)C(=O)N1CCC[C@H]1C(=O)N[C@H](C(=O)NC(C)(C)C(=O)NC(C)(C)C(=O)N[C@@H](CCC(=O)O)C(=O)N[C@@H](CCC(N)=O)C(=O)N[C@H](CO)Cc1ccccc1)C(C)C)C(C)C [alamethicin, reference compound] (Ac-[Aib]P[Aib]A[Aib]AQ[Aib]V[Aib]GL[Aib]PV[Aib][Aib]EQ[Phe(ol)])	−1.167	0.445			Fold: 0.445 fold
COc1ccc(C[C@H]2NC[C@H](O)[C@H]2OC(C)=O)cc1 [anisomycin]			−0.148	0.902 fold	
COc1cccc2c1cc([N+](=O)[O-])c1c(C(=O)O)cc3c(c12)OCO3 [aristolochic acid, reference compound]	−1.243	0.422			Fold: 0.422 fold
CC[C@@H]1/C=C(\C)C[C@H](C)C[C@H](OC)[C@H]2O[C@@](O)(C(=O)C(=O)N3CCCC[C@H]3C(=O)O[C@H](/C(C)=C/[C@@H]3CC[C@@H](O)[C@H](OC)C3)[C@H](C)[C@@H](O)CC1=O)[C@H](C)C[C@@H]2OC [ascomycin (FK-520)]			−0.035	0.976 fold	
CO/C1=C\C(C)=C\[C@@H](C)[C@@H](O)[C@@H](C)C/C(C)=C/C=C/[C@H](OC)[C@@H]([C@@H](C)[C@@H](O)[C@H](C)[C@@]2(O)C[C@@H](O)[C@H](C)[C@@H](C(C)C)O2)OC1=O [bafilomycin A1]	−0.234	0.850			
